According to ChEMBL document CHEMBL4004849, “Tetrazolylmethyl quinolines: Design, docking studies, synthesis, anticancer and antifungal analyses” (2017):
Active and inactive are the calls of the source.

Tests used:
Type in all cases: functional
MDA-MB-468 = test: Growth inhibition of human MDA-MB-468 cells at 10^-5 M incubated for 48 hrs by sulforhodamine B assay relative to control
SF-539 = test: Growth inhibition of human SF539 cells at 10^-5 M incubated for 48 hrs by sulforhodamine B assay relative to control
SK-MEL-5 = test: Growth inhibition of human SK-MEL-5 cells at 10^-5 M incubated for 48 hrs by sulforhodamine B assay relative to control
HCT-116 = test: Growth inhibition of human HCT116 cells at 10^-5 M incubated for 48 hrs by sulforhodamine B assay relative to control
NCI/ADR-RES = test: Growth inhibition of human NCI-ADR-RES cells at 10^-5 M incubated for 48 hrs by sulforhodamine B assay relative to control
T47D = test: Growth inhibition of human T47D cells at 10^-5 M incubated for 48 hrs by sulforhodamine B assay relative to control
BT-549 = test: Growth inhibition of human BT549 cells at 10^-5 M incubated for 48 hrs by sulforhodamine B assay relative to control
SNB-19 = test: Growth inhibition of human SNB19 cells at 10^-5 M incubated for 48 hrs by sulforhodamine B assay relative to control
SF-295 = test: Growth inhibition of human SF295 cells at 10^-5 M incubated for 48 hrs by sulforhodamine B assay relative to control
HL-60(TB) = test: Growth inhibition of human HL-60(TB) cells at 10^-5 M incubated for 48 hrs by sulforhodamine B assay relative to control
OVCAR-4 = test: Growth inhibition of human OVCAR4 cells at 10^-5 M incubated for 48 hrs by sulforhodamine B assay relative to control
COLO 205 = test: Growth inhibition of human COLO205 cells at 10^-5 M incubated for 48 hrs by sulforhodamine B assay relative to control
UO-31 = test: Growth inhibition of human UO31 cells at 10^-5 M incubated for 48 hrs by sulforhodamine B assay relative to control
Candida albicans = test: Antifungal activity against Candida albicans after 24 hrs by serial dilution method
NCI-H522 = test: Growth inhibition of human NCI-H522 cells at 10^-5 M incubated for 48 hrs by sulforhodamine B assay relative to control
MCF7 = test: Growth inhibition of human MCF7 cells at 10^-5 M incubated for 48 hrs by sulforhodamine B assay relative to control
Aspergillus fumigatus [1] = test: Antifungal activity against Aspergillus fumigatus after 24 hrs by serial dilution method
Malme-3M = test: Growth inhibition of human MALME-3M cells at 10^-5 M incubated for 48 hrs by sulforhodamine B assay relative to control
UACC-257 = test: Growth inhibition of human UACC257 cells at 10^-5 M incubated for 48 hrs by sulforhodamine B assay relative to control
Hs-578T = test: Growth inhibition of human Hs 578T cells at 10^-5 M incubated for 48 hrs by sulforhodamine B assay relative to control
OVCAR-5 = test: Growth inhibition of human OVCAR5 cells at 10^-5 M incubated for 48 hrs by sulforhodamine B assay relative to control
LOX IMVI = test: Growth inhibition of human LOXIMVI cells at 10^-5 M incubated for 48 hrs by sulforhodamine B assay relative to control
SK-OV-3 = test: Growth inhibition of human SKOV3 cells at 10^-5 M incubated for 48 hrs by sulforhodamine B assay relative to control
M14 = test: Growth inhibition of human M14 cells at 10^-5 M incubated for 48 hrs by sulforhodamine B assay relative to control
OVCAR-3 = test: Growth inhibition of human OVCAR3 cells at 10^-5 M incubated for 48 hrs by sulforhodamine B assay relative to control
HCC 2998 = test: Growth inhibition of human HCC2998 cells at 10^-5 M incubated for 48 hrs by sulforhodamine B assay relative to control
SF-268 = test: Growth inhibition of human SF268 cells at 10^-5 M incubated for 48 hrs by sulforhodamine B assay relative to control
KM12 = test: Growth inhibition of human KM12 cells at 10^-5 M incubated for 48 hrs by sulforhodamine B assay relative to control
EKVX = test: Growth inhibition of human EKVX cells at 10^-5 M incubated for 48 hrs by sulforhodamine B assay relative to control
SR = test: Growth inhibition of human SR cells at 10^-5 M incubated for 48 hrs by sulforhodamine B assay relative to control
A549 = test: Growth inhibition of human A549/ATCC cells at 10^-5 M incubated for 48 hrs by sulforhodamine B assay relative to control
HCT-15 = test: Growth inhibition of human HCT15 cells at 10^-5 M incubated for 48 hrs by sulforhodamine B assay relative to control
SK-MEL-28 = test: Growth inhibition of human SK-MEL-28 cells at 10^-5 M incubated for 48 hrs by sulforhodamine B assay relative to control
Aspergillus fumigatus [2] = test: Antifungal activity against Aspergillus fumigatus at 100 ug/ml by disc diffusion method; conditions: read-out: IZ
MDA-MB-435 = test: Growth inhibition of human MDA-MB-435 cells at 10^-5 M incubated for 48 hrs by sulforhodamine B assay relative to control
SK-MEL-2 = test: Growth inhibition of human SK-MEL-2 cells at 10^-5 M incubated for 48 hrs by sulforhodamine B assay relative to control
NCI-H226 = test: Growth inhibition of human NCI-H226 cells at 10^-5 M incubated for 48 hrs by sulforhodamine B assay relative to control
CAKI-1 = test: Growth inhibition of human Caki1 cells at 10^-5 M incubated for 48 hrs by sulforhodamine B assay relative to control
MOLT-4 = test: Growth inhibition of human MOLT4 cells at 10^-5 M incubated for 48 hrs by sulforhodamine B assay relative to control
MDA-MB-231 = test: Growth inhibition of human MDA-MB-231/ATCC cells at 10^-5 M incubated for 48 hrs by sulforhodamine B assay relative to control
HT-29 = test: Growth inhibition of human HT-29 cells at 10^-5 M incubated for 48 hrs by sulforhodamine B assay relative to control
786-0 = test: Growth inhibition of human 786-0 cells at 10^-5 M incubated for 48 hrs by sulforhodamine B assay relative to control
U-251 = test: Growth inhibition of human U251 cells at 10^-5 M incubated for 48 hrs by sulforhodamine B assay relative to control
SNB-75 = test: Growth inhibition of human SNB75 cells at 10^-5 M incubated for 48 hrs by sulforhodamine B assay relative to control

Cc1ccc2nc(Cl)c(Cn3nnc(CSc4ccccc4)n3)cc2c1
active: growth inhibition (GI) (MDA-MB-468) | growth inhibition (GI) (SF-539) | growth inhibition (GI) (SK-MEL-5) | growth inhibition (GI) (HCT-116) | growth inhibition (GI) (NCI/ADR-RES) | growth inhibition (GI) (T47D) | growth inhibition (GI) (BT-549) | growth inhibition (GI) (SNB-19) | growth inhibition (GI) (SF-295) | growth inhibition (GI) (HL-60(TB)) | growth inhibition (GI) (OVCAR-4) | growth inhibition (GI) (COLO 205) | growth inhibition (GI) (UO-31) | growth inhibition (GI) (NCI-H522) | growth inhibition (GI) (MCF7) | growth inhibition (GI) (Malme-3M) | growth inhibition (GI) (UACC-257) | growth inhibition (GI) (Hs-578T) | growth inhibition (GI) (OVCAR-5) | growth inhibition (GI) (LOX IMVI) | growth inhibition (GI) (SK-OV-3) | growth inhibition (GI) (M14) | growth inhibition (GI) (OVCAR-3) | growth inhibition (GI) (HCC 2998) | growth inhibition (GI) (SF-268) | growth inhibition (GI) (KM12) | growth inhibition (GI) (EKVX) | growth inhibition (GI) (SR) | growth inhibition (GI) (A549) | growth inhibition (GI) (HCT-15) | growth inhibition (GI) (SK-MEL-28) | growth inhibition (GI) (MDA-MB-435) | growth inhibition (GI) (SK-MEL-2) | growth inhibition (GI) (NCI-H226) | growth inhibition (GI) (CAKI-1) | growth inhibition (GI) (MOLT-4) | growth inhibition (GI) (MDA-MB-231) | growth inhibition (GI) (HT-29) | growth inhibition (GI) (786-0) | growth inhibition (GI) (U-251) | growth inhibition (GI) (SNB-75)
10 µg/mL: MIC (Candida albicans)
25 µg/mL: MIC (Aspergillus fumigatus [1])
18 mm: zone of inhibition at 100 µg/mL (Aspergillus fumigatus [2])

Cc1ccc2nc(Cl)c(Cn3nnnc3Cc3ccccc3)cc2c1
25 µg/mL: MIC (Candida albicans) | MIC (Aspergillus fumigatus [1])
active: growth inhibition (GI) (MDA-MB-468) | growth inhibition (GI) (SF-539) | growth inhibition (GI) (SK-MEL-5) | growth inhibition (GI) (HCT-116) | growth inhibition (GI) (NCI/ADR-RES) | growth inhibition (GI) (T47D) | growth inhibition (GI) (BT-549) | growth inhibition (GI) (SNB-19) | growth inhibition (GI) (SF-295) | growth inhibition (GI) (HL-60(TB)) | growth inhibition (GI) (OVCAR-4) | growth inhibition (GI) (COLO 205) | growth inhibition (GI) (UO-31) | growth inhibition (GI) (NCI-H522) | growth inhibition (GI) (MCF7) | growth inhibition (GI) (Malme-3M) | growth inhibition (GI) (UACC-257) | growth inhibition (GI) (Hs-578T) | growth inhibition (GI) (OVCAR-5) | growth inhibition (GI) (LOX IMVI) | growth inhibition (GI) (SK-OV-3) | growth inhibition (GI) (M14) | growth inhibition (GI) (OVCAR-3) | growth inhibition (GI) (HCC 2998) | growth inhibition (GI) (SF-268) | growth inhibition (GI) (KM12) | growth inhibition (GI) (EKVX) | growth inhibition (GI) (SR) | growth inhibition (GI) (A549) | growth inhibition (GI) (HCT-15) | growth inhibition (GI) (SK-MEL-28) | growth inhibition (GI) (MDA-MB-435) | growth inhibition (GI) (SK-MEL-2) | growth inhibition (GI) (NCI-H226) | growth inhibition (GI) (CAKI-1) | growth inhibition (GI) (MOLT-4) | growth inhibition (GI) (MDA-MB-231) | growth inhibition (GI) (HT-29) | growth inhibition (GI) (786-0) | growth inhibition (GI) (U-251) | growth inhibition (GI) (SNB-75)
10 mm: zone of inhibition at 100 µg/mL (Aspergillus fumigatus [2])

Clc1nc2ccccc2cc1Cn1nnc(CSc2ccccc2)n1
25 µg/mL: MIC (Aspergillus fumigatus [1])
15 mm: zone of inhibition at 100 µg/mL (Aspergillus fumigatus [2])
active: growth inhibition (GI) (MDA-MB-468) | growth inhibition (GI) (SF-539) | growth inhibition (GI) (SK-MEL-5) | growth inhibition (GI) (HCT-116) | growth inhibition (GI) (NCI/ADR-RES) | growth inhibition (GI) (T47D) | growth inhibition (GI) (BT-549) | growth inhibition (GI) (SNB-19) | growth inhibition (GI) (SF-295) | growth inhibition (GI) (HL-60(TB)) | growth inhibition (GI) (OVCAR-4) | growth inhibition (GI) (COLO 205) | growth inhibition (GI) (UO-31) | growth inhibition (GI) (NCI-H522) | growth inhibition (GI) (MCF7) | growth inhibition (GI) (Malme-3M) | growth inhibition (GI) (UACC-257) | growth inhibition (GI) (Hs-578T) | growth inhibition (GI) (OVCAR-5) | growth inhibition (GI) (LOX IMVI) | growth inhibition (GI) (SK-OV-3) | growth inhibition (GI) (M14) | growth inhibition (GI) (OVCAR-3) | growth inhibition (GI) (HCC 2998) | growth inhibition (GI) (SF-268) | growth inhibition (GI) (KM12) | growth inhibition (GI) (EKVX) | growth inhibition (GI) (SR) | growth inhibition (GI) (A549) | growth inhibition (GI) (HCT-15) | growth inhibition (GI) (SK-MEL-28) | growth inhibition (GI) (MDA-MB-435) | growth inhibition (GI) (SK-MEL-2) | growth inhibition (GI) (NCI-H226) | growth inhibition (GI) (CAKI-1) | growth inhibition (GI) (MOLT-4) | growth inhibition (GI) (MDA-MB-231) | growth inhibition (GI) (HT-29) | growth inhibition (GI) (786-0) | growth inhibition (GI) (U-251) | growth inhibition (GI) (SNB-75)
10 µg/mL: MIC (Candida albicans)
